Experiments:
[1] = molecular target: T1, EGFR T790M, L858R (amino acids 669-1011 Accession Number NP_005219.2) (Homo sapiens, UniProt P00533, L858R/T790M); assay: KdELECT binding assay (Eurofins Discovery), EGFR T790M, L858R; conditions: read-out: EGFR DM Kd
T1 construct: purchased Eurofins Discovery; host or cells: mammalian cells (HEK-293)
Description: (§1) Exemplary compounds were tested for ability to bind to EGFR WT (amino acids 669-1011, Accession Number NP_005219.2) or EGFR T790M, L858R (amino acids 669-1011 Accession Number NP_005219.2) expressed from bacteria or mammalian cells, respectively. Compounds were tested using the KdELECT assay at Eurofins Discovery.
(§2) Kinase-tagged T7 phage strains were prepared in an E. coli host derived from the BL21 strain. E. coli were grown to log-phase and infected with T7 phage and incubated with shaking at 32° C. until lysis. The lysates were centrifuged and filtered to remove cell debris. The remaining kinases were produced in HEK-293 cells and subsequently tagged with DNA for qPCR detection. Streptavidin-coated magnetic beads were treated with biotinylated small molecule ligands for 30 minutes at room temperature to generate affinity resins for kinase assays. The liganded beads were blocked with excess biotin and washed with blocking buffer (SeaBlock (Pierce), 1% BSA, 0.05% Tween 20, 1 mM DTT) to remove unbound ligand and to reduce non-specific binding. Binding reactions were assembled by combining kinases, liganded affinity beads, and test compounds in 1× binding buffer (20% SeaBlock, 0.17×PBS, 0.05% Tween 20, 6 mM DTT). Test compounds were prepared as 111× stocks in 100% DMSO. Kd values were determined using an 11-point 3-fold compound dilution series with three DMSO control points. All compounds for Kd measurements are distributed by acoustic transfer (non-contact dispensing) in 100% DMSO. The compounds were then diluted directly into the assays such that the final concentration of DMSO was 0.9%. All reactions performed in polypropylene 384-well plate. Each was a final volume of 0.02 mL. The assay plates were incubated at room temperature with shaking for 1 hour and the affinity beads were washed with wash buffer (1× PBS, 0.05% Tween 20). The beads were then re-suspended in elution buffer (1× PBS, 0.05% Tween 20, 0.5 μM nonbiotinylated affinity ligand) and incubated at room temperature with shaking for 30 minutes. The kinase concentration in the eluates was measured by qPCR.

[2] = molecular target: T2, EGFR WT (amino acids 669-1011, Accession Number NP_005219.2) (Homo sapiens, UniProt P00533); assay: KdELECT binding assay (Eurofins Discovery), EGFR WT
T2 construct: purchased Eurofins Discovery; host or cells: bacteria (E. coli, BL21-derived, T7 phage)
T2 sequence (P00533 669-1011): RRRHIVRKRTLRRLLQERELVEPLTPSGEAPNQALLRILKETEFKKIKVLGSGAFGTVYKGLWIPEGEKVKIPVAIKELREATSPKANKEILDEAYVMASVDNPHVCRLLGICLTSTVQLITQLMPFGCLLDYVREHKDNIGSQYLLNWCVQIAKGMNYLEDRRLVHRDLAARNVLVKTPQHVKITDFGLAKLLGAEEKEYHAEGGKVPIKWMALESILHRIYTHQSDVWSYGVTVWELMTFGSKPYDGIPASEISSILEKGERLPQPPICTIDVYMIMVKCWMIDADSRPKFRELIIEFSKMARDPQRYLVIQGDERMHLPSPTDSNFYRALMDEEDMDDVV
Description: as §1, §2

EGFR = molecular target: T3, EGFR (Homo sapiens, UniProt P00533); assay: KdELECT binding assay, EGFR
T3 construct: purchased
T3 sequence (P00533 25-1210): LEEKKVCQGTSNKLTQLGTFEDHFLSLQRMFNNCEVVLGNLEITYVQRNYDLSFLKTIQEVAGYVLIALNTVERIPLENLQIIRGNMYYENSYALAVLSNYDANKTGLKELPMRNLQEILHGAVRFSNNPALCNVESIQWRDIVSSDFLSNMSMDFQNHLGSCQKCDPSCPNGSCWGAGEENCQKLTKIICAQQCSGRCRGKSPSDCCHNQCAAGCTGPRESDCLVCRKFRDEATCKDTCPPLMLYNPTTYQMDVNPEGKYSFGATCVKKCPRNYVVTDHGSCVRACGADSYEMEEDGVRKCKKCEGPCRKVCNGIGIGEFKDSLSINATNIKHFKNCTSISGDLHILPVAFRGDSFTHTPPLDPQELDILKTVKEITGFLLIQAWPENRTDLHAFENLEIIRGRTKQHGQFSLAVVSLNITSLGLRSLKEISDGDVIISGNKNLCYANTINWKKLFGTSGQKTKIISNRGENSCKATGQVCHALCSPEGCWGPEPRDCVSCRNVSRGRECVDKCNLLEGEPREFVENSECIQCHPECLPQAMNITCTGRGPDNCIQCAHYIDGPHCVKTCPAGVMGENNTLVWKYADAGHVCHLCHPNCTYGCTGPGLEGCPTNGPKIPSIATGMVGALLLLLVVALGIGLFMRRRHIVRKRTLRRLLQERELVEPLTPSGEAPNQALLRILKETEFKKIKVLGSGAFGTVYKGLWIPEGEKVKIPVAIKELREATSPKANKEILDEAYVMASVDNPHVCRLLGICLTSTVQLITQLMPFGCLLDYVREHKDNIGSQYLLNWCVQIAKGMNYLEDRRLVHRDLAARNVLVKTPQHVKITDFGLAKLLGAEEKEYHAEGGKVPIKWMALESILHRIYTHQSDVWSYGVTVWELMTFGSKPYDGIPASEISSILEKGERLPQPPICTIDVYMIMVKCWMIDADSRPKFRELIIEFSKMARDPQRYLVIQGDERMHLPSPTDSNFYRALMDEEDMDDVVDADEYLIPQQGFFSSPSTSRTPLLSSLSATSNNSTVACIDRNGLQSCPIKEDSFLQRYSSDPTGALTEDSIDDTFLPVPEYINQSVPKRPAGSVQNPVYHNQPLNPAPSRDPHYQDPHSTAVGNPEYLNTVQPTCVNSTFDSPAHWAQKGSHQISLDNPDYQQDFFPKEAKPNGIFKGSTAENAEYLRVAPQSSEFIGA
Description: Exemplary compounds were tested for ability to bind to EGFR.
as §2, with “Compounds were tested using a KdELECT assay. Kinase-tagged” for “Kinase-tagged”

HEK293 cells = assay: Cellular growth inhibition assay (CellTiter-Glo), HEK293 cells; type: cell-based; conditions: Homo sapiens, 72 h, three days compound treatment, CellTiter-Glo 2.0, read-out: CTG HEK293 GI50
Description: Exemplary compounds were tested for ability to inhibit the proliferation of HEK293 cells or HeLa cells.
HEK293 and HeLa cells were cultured in DMEM medium supplemented with 10% fetal bovine serum and 1% Penn/Strep. Cells were seeded in white 384-well plates at 500 cells/well in […] complete medium. Following seeding, plates were spun at 300×g for three minutes and cultured at 37° C. with 5% CO2 in a humidified tissue culture incubator.
After 24 hours, compounds were titrated in 100% DMSO and diluted in complete cell culture medium. […] of compound/media mixture was added to cells to bring total volume in well to […]. DMSO alone was used as a negative control. P lates were then spun at 300×g for three minutes and stored at 37° C. with 5% CO2 for three days.
On Day 0 and Day 3 of compound treatment, cell viability was quantified with CellTiter-Glo 2.0 reagent (Promega). After equilibrating microplates at room temperature for 30 minutes, 25 μL CellTiter-Glo 2.0 reagent was dispensed into each well to bring total volume to […]. Plates were mixed on shaker for 2 minutes at 500 rpm, followed by a 10-minute incubation at room temperature. Following a quick spin, luminescence readings were measured with an EnVision Plate Reader. Data was normalized to DMSO treated Day 0 and Day 3 readings. A four-parameter non-linear regression curve fit was applied to dose-response data in GraphPad Prism data analysis software to determine the half maximal growth inhibitory concentration (GI50) for each compound.

T1 sequence (P00533 669-1011 T790M/L858R): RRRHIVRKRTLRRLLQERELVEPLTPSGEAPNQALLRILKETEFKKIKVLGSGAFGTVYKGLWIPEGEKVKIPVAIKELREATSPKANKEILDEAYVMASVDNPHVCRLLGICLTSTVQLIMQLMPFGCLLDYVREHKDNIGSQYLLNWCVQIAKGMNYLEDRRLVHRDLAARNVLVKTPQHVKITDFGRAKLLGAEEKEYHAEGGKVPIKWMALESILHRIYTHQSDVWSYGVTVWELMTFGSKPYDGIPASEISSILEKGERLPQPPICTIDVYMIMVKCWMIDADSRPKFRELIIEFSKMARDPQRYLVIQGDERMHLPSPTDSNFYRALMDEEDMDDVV

Row | SMILES | Kd [1] | Kd [2] | Kd (EGFR) | GI50 (HEK293 cells)
1 | C=CC(=O)Nc1cc(Nc2nccc(-c3cn(C)c4ccccc34)n2)c(OC)cc1N(C)CCN(C)CCOCCOCCOCCOCCOCCOCCON(C)C(=O)N1N=C(c2cc(F)ccc2F)SC1(CCCN)c1ccccc1 (stereo not shown) [Compound I-68] | < 50 nM | 500 to 2500 nM |  | 
2 | CC[C@@H]1C(=O)N(C)c2cnc(Nc3ccc(C(=O)NCCOCCOCCOCCOCCOCCOCCN(C)C/C=C/C(=O)NC4CN(c5nc(Nc6cn(C)nc6OC)c6ncn(C)c6n5)C[C@H]4F)cc3OC)nc2N1C1CCCC1 (stereo partly drawn) [Compound I-121, 4-[[(7R)-8-cyclopentyl-7-ethyl-5-methyl-6-oxo-7H-pteridin-2-yl]amino]-N-[2-[2-[2-[2-[2-[2-[2-[[(E)-4-[1[(3R,4R)-4-fluoro-1-1[6-1[(3-methoxy-1-methyl-pyrazol-4-yl)amino]-9-methyl-purin-2-yl]pyrrolidin-3-yl]amino]-4-oxo-but-2-enyl]-methyl-amino]ethoxy]ethoxy]ethoxy]ethoxy]ethoxy]ethoxy]ethyl]-3-methoxy-benzamide] | 50 to 500 nM | 500 to 2500 nM | 500 to 2500 nM | 500 to 1500 nM
3 | CC[C@@H]1C(=O)N(C)c2cnc(Nc3ccc(C(=O)NCCOCCOCCOCCOCCOCCOCCN(C)C/C=C/C(=O)Nc4cc(Nc5nccc(-c6cn(C)c7ccccc67)n5)c(OC)cc4N(C)CCN(C)C)cc3OC)nc2N1C1CCCC1 [Compound I-118, 4-[[(7R)-8-cyclopentyl-7-ethyl-5-methyl-6-oxo-7H-pteridin-2-yl]amino]-N-[2-[2-[2-[2-[2-[2-[2-[[(E)-4-[2-[2-(dimethylamino)ethyl-methyl-amino]-4-methoxy-5-[[4-(1-methylindol-3-yl)pyrimidin-2-yl]amino]anilino]-4-oxo-but-2-enyl]-methyl-amino]ethoxy]ethoxy]ethoxy]ethoxy]ethoxy]ethoxy]ethyl]-3-methoxy-benzamide] | 50 to 500 nM | > 2500 nM | > 2500 nM | 500 to 1500 nM
4 | C=CC(=O)Nc1cc(Nc2nccc(-c3cn(C)c4ccccc34)n2)c(OC)cc1N(C)CCN(C)CCOCCOCCOCCOCCOCCOCCNC(=O)c1ccc(Nc2ncc3c(n2)N(C2CCCC2)[C@H](CC)C(=O)N3C)c(OC)c1 [Compound I-113, (R)—N-(2-(2-acrylamido-5-methoxy-4-((4-(1-methyl-1H-indol-3-yl)pyrimidin-2-yl)amino)phenyl)-5-methyl-8,11,14,17,20,23-hexaoxa-2,5-diazapentacosan-25-yl)-4-((8-cyclopentyl-7-ethyl-5-methyl-6-oxo-5,6,7,8-tetrahydropteridin-2-yl)amino)-3-methoxybenzamide] |  | 500 to 2500 nM | 500 to 2500 nM | 1500 to 5000 nM
5 | C=CC(=O)Nc1cc(Nc2nccc(-c3cn(C)c4ccccc34)n2)c(OC)cc1N(C)CCN(C)CCCCNS(=O)(=O)c1ccc(Nc2ncc(Br)c(Nc3cccc(F)c3C(N)=O)n2)cc1 [Compound I-29, 2-[[5-bromo-2-[4-[4-[2-[5-methoxy-N-methyl-4-[[4-(1-methylindol-3-yl)pyrimidin-2-yl]amino]-2-(prop-2-enoylamino)anilino]ethyl-methyl-amino]butylsulfamoyl]anilino]pyrimidin-4-yl]amino]-6-fluoro-benzamide] | < 50 nM | 50 to 500 nM |  | 
6 | C=CC(=O)Nc1cc(Nc2nccc(-c3cn(C)c4ccccc34)n2)c(OC)cc1N(C)CCN(C)CCOCCOCCOCCOCCNC(=O)c1ccc(Nc2ncc3c(n2)N(C2CCCC2)[C@H](CC)C(=O)N3C)c(OC)c1 [Compound I-112, 4-[[(7R)-8-cyclopentyl-7-ethyl-5-methyl-6-oxo-7H-pteridin-2-yl]amino]-3-methoxy-N-[2-[2-[2-1[2-[2-1[2-1[5-methoxy-N-methyl-4-1[[4-(1-methylindol-3-yl)pyrimidin-2-yl]amino]-2-(prop-2-enoylamino)anilino]ethyl-methyl-amino]ethoxy]ethoxy]ethoxy]ethoxy]ethyl]benzamide] |  | 500 to 2500 nM | 500 to 2500 nM | 

Second part, led by results:

Row | Kd [1] | Kd [2] | Kd (EGFR) | SMILES | GI50 (HEK293 cells)
7 | < 50 nM | 50 to 500 nM | < 50 nM | C=CC(=O)Nc1cc(Nc2nccc(-c3cn(C)c4ccccc34)n2)c(OC)cc1N(C)CCN(C)CCCCCCCCNS(=O)(=O)c1ccc(Nc2ncc(Br)c(Nc3cccc(F)c3C(N)=O)n2)cc1 [Compound I-28, 2-[[5-bromo-2-[4-[8-[2-[5-methoxy-N-methyl-4-[[4-(1-methylindol-3-yl)pyrimidin-2-yl]amino]-2-(prop-2-enoylamino)anilino]ethyl-methyl-amino]octylsulfamoyl]anilino]pyrimidin-4-yl]amino]-6-fluoro-benzamide] | 
8 | < 50 nM | 50 to 500 nM | < 50 nM | C=CC(=O)Nc1cc(Nc2nccc(-c3cn(C)c4ccccc34)n2)c(OC)cc1N(C)CCN(C)CCOCCOCCOCCOCCOCCOCCNS(=O)(=O)c1ccc(Nc2ncc(Br)c(Nc3cccc(F)c3C(N)=O)n2)cc1 [Compound I-34, 2-[[5-bromo-2-[4-[2-[2-[2-[2-[2-[2-[2-[2-[5-methoxy-N-methyl-4-[[4-(1-methylindol-3-yl)pyrimidin-2-yl]amino]-2-(prop-2-enoylamino)anilino]ethyl-methyl-amino]ethoxy]ethoxy]ethoxy]-ethoxy]ethoxy]ethoxy]ethylsulfamoyl]anilino]pyrimidin-4-yl]amino]-6-fluoro-benzamide] | 
9 | < 50 nM | 50 to 500 nM |  | C=CC(=O)Nc1cc(Nc2nccc(-c3cn(C)c4ccccc34)n2)c(OC)cc1N(C)CCN(C)CCOCCOCCOCCOCCNS(=O)(=O)c1ccc(Nc2ncc(Br)c(Nc3cccc(F)c3C(N)=O)n2)cc1 [Compound I-32, 2-[[5-bromo-2-[4-[2-[2-[2-[2-[2-[2-[5-methoxy-N-methyl-4-[[4-(1-methylindol-3-yl)pyrimidin-2-yl]amino]-2-(prop-2-enoylamino)anilino]ethyl-methyl-amino]ethoxy]-ethoxy]ethoxy]ethoxy]ethylsulfamoyl]anilino]pyrimidin-4-yl]amino]-6-fluoro-benzamide] | 
